Measured values as given in PubChem BioAssay AID1208 (EPA DSSTox, 2008).
Activity calls are given as the source filed them.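 Rule for the calls: active = at least one rat sex group has a carcinogenic potency value and tumor site recorded; inconclusive = only rat studies were judged inadequate by the national testing program; inactive = no potency or tumor site, with negative rat experiments.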

System: rat chronic carcinogenicity bioassay, TD50
Assay: DSSTox (CPDBAS) Carcinogenic Potency Database Summary Rat Bioassay Results
Conditions: for Potency: stronger effect = lower value
Outline: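 The activity score maps log10(1/TD50_Rat_mmol) linearly onto 1–100; actives without a computed TD50, such as mixtures, receive 50. Source data are chronic rat carcinogenicity tests, using the most positive experiment for each sex.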

[1] = TD50_Rat_Note: no positive results, TargetSites_Rat_Female: no positive results
[2] = TargetSites_Rat_Female: no positive results
[3] = TargetSites_Rat_Female: mammary gland
[4] = TD50_Rat_Note: TD50 is harmonic mean of more than one positive test
[5] = TD50_Rat_Note: TD50 is harmonic mean of more than one positive test, TargetSites_Rat_Female: liver
[6] = TD50_Rat_Note: no positive results

CCN(CC)c1ccc(N=Nc2cc[n+]([O-])cc2)cc1
Potency (TD50_Rat_Note: TD50 value is overestimated as upper 99% confidence limit from study with 100% tumor incidence but no lifetable, harmoni): 1.63 mg/kg/day

COP(=O)(OC)O/C(=C\Cl)c1cc(Cl)c(Cl)cc1Cl
outcome (TD50_Rat_Note: no positive results, TargetSites_Rat_Female: no positive results- CPDB evaluation based on NCI Technical Report): no positive results

C=C(C)[C@H]1Cc2c(ccc3c2O[C@@H]2COc4cc(OC)c(OC)cc4[C@@H]2C3=O)O1
outcome [1]: inactive; no positive results

C=C(C)C
Potency [2]: 3550 mg/kg/day

CC1CN(N=O)CC(C)N1C (stereo not drawn)
Potency (TargetSites_Rat_Female: nasal cavity): 0.151 mg/kg/day

Cc1ncc([N+](=O)[O-])n1C
Potency [3]: 17 mg/kg/day

OCCOCCO
Potency [2]: 1660 mg/kg/day

CC1CN(N=O)CC(C)N1C(=O)c1ccccc1 (stereo not drawn)
Potency (TargetSites_Rat_Female: stomach): 9.66 mg/kg/day

COc1ccc(N)cc1N
Potency (TD50_Rat_Note: TD50 is harmonic mean of more than one positive test, TargetSites_Rat_Female: clitoral gland, ear Zymbals gland, mammary gland, thyroid gland): 183 mg/kg/day

CCC(C)[N+](=O)[O-] (stereo not drawn)
Potency: 2.86 mg/kg/day

Nc1cc(Cl)c(-c2cc(Cl)c(N)cc2Cl)cc1Cl
outcome [1]: inactive; no positive results

Cc1cccc(N=Nc2ccc(N(C)C)cc2)c1
Potency [4]: 3.28 mg/kg/day

CCCN(CCC)c1c([N+](=O)[O-])cc(C(F)(F)F)cc1[N+](=O)[O-]
outcome [1]: inactive; no positive results

CC(C)(C)NCC(O)c1cc(O)cc(O)c1 (stereo not drawn)
Potency (TargetSites_Rat_Female: mesovarium): 410 mg/kg/day

Nc1nnc(-c2ccc([N+](=O)[O-])o2)o1
Potency (TargetSites_Rat_Female: kidney, lung, mammary gland, stomach): 3.67 mg/kg/day

CN(C)CCOC(C)(c1ccccc1)c1ccccn1 (stereo not drawn)
Potency [2]: 1610 mg/kg/day

O=Nc1ccc(Nc2ccccc2)cc1
Potency [2]: 201 mg/kg/day

O=C(Nc1cccc2c(=O)cc(-c3nn[nH]n3)oc12)c1ccc(OCCCCc2ccccc2)cc1
outcome [1]: inactive; no positive results

CCC1(c2ccccc2)C(=O)N=C(O)NC1=O (stereo not drawn)
Potency [5]: 86 mg/kg/day

Cc1ccc2c(c1)C(N1CCN(C)CC1)=Nc1ccccc1S2
outcome [1]: inactive; no positive results

C=CC(OC(C)=O)c1ccc2c(c1)OCO2 (stereo not drawn)
Potency [4]: 25 mg/kg/day

OC(Cn1cncn1)(Cn1cncn1)c1ccc(F)cc1F
Potency [2]: 80.7 mg/kg/day

CC(O)CNC(=O)N(N=O)C(C)Cl (stereo not drawn)
Potency [2]: 0.124 mg/kg/day

CCC[C@@H]1O[C@@H]2C[C@H]3[C@@H]4CCC5=CC(=O)C=C[C@]5(C)[C@H]4[C@@H](O)C[C@]3(C)[C@]2(C(=O)CO)O1
Potency: 0.291 mg/kg/day

O=[N+]([O-])O
outcome [1]: inactive; no positive results

S=[Se]
Potency [5]: 8.01 mg/kg/day

CCc1cc(C(N)=S)ccn1
outcome [1]: inactive; no positive results

[C-]1=CC=CC1.[C-]1=CC=CC1.[Cl-].[Cl-].[Ti+4]
outcome [1]: inactive; no positive results

Oc1cccc2cccnc12
outcome [1]: inactive; no positive results

O=NN1C[C@H](O)C[C@H]1C(=O)O
outcome [1]: inactive; no positive results

C=C(F)F
outcome [1]: inactive; no positive results

C[C@@H]1O[C@@]2(CS1)CN1CCC2CC1
outcome [1]: inactive; no positive results

CC1(C)S[C@@H]2[C@H](NC(=O)[C@H](N)c3ccccc3)C(=O)N2[C@H]1C(=O)O
outcome [1]: inactive; no positive results

CCN(C#N)N=O
Potency (TD50_Rat_Note: TD50 is harmonic mean of more than one positive test, TargetSites_Rat_Female: nasal cavity): 3.68 mg/kg/day

O=c1cc[nH]c(=S)[nH]1
Potency (TD50_Rat_Note: TD50 is harmonic mean of more than one positive test, TargetSites_Rat_Female: thyroid gland): 11.9 mg/kg/day

ClC(Cl)=C(Cl)Cl
Potency (TD50_Rat_Note: TD50 is harmonic mean of more than one positive test, TargetSites_Rat_Female: hematopoietic system): 145 mg/kg/day

NC(=O)N/N=C/c1ccco1
outcome [1]: inactive

Oc1ccc(Cl)cc1Cc1ccccc1
outcome [1]: inactive; no positive results

CC(C)(CO)CCCCCCC(C)(C)CO
outcome [1]: inactive; no positive results

COC1[C@@H](O[C@@H]2O[C@H](C)[C@@H](O[C@H]3C[C@@](C)(O)[C@H](OC(=O)CC(C)C)[C@H](C)O3)[C@H](N(C)C)[C@H]2O)[C@@H](CC=O)C[C@@H](C)[C@@H](O)/C=C/C=C/C[C@@H](C)OC(=O)C[C@H]1OC(C)=O (stereo partly drawn)
outcome [1]: inactive; no positive results

O=c1[nH]cc(F)c(=O)[nH]1
outcome [1]: inactive; no positive results

Cc1ccc(O)c(O)c1
Potency (TD50_Rat_Note: TD50 is harmonic mean of more than one positive test, harmonic mean of TD50 includes a value for upper 99% confidence li, TargetSites_Rat_Female: stomach): 248 mg/kg/day

CC(C)(Oc1ccc(C2CCCc3ccccc32)cc1)C(=O)O (stereo not drawn)
Potency (TD50_Rat_Note: TD50 is harmonic mean of more than one positive test, greater than ten-fold variation among TD50 values for positive res, TargetSites_Rat_Female: liver): 11 mg/kg/day

O=NN1CCCC1c1ccc[n+]([O-])c1 (stereo not drawn)
Potency (TD50_Rat_Note: TD50 is harmonic mean of more than one positive test, TargetSites_Rat_Female: esophagus, nasal cavity): 0.876 mg/kg/day

O=NN1CCOC1=O
Potency (TD50_Rat_Note: TD50 is harmonic mean of more than one positive test, harmonic mean of TD50 includes a value for upper 99% confidence li): 0.385 mg/kg/day

O=c1[nH]nc(-c2ccc([N+](=O)[O-])o2)o1
Potency (TargetSites_Rat_Female: all tumor bearing animals): 8.61 mg/kg/day

CNC(=O)CSP(=S)(OC)OC
outcome [1]: inactive; no positive results

OC[P+](CO)(CO)CO
outcome [1]: inactive; no positive results

CC(=O)Nc1nc(NC(C)=O)nc(-c2ccc([N+](=O)[O-])o2)n1
Potency [3]: 14.1 mg/kg/day

CC(Cl)Cl
outcome [1]: inactive; no positive results

N[C@@H](CS)C(=O)O
outcome [1]: inactive; no positive results

Nc1nc(-c2ccc([N+](=O)[O-])o2)cs1
Potency (TargetSites_Rat_Female: stomach, urinary bladder): 5.85 mg/kg/day

COc1ccc(N)cc1
outcome [1]: inactive; no positive results

Cc1ccccc1
Potency (TD50_Rat_Note: TD50 is harmonic mean of more than one positive test, TargetSites_Rat_Female: Maltoni head cancers): 3060 mg/kg/day

Cc1ccc(N)c(C)c1
outcome [6]: inactive; no positive results

O=NN1CCOC(O)C1 (stereo not drawn)
outcome [1]: inactive

C=CF
Potency (TD50_Rat_Note: TD50 is harmonic mean of more than one positive test, TargetSites_Rat_Female: ear Zymbals gland, liver, vascular system): 20 mg/kg/day

CC(=O)OCC(=O)[C@@]12N=C(C)O[C@@H]1C[C@H]1[C@@H]3CCC4=CC(=O)C=C[C@]4(C)[C@H]3[C@@H](O)C[C@@]12C
outcome (TD50_Rat_Note: TD50 not calculated by CPDB Source, TD50_Rat_mmol was not calculated, but Activiity Score is assigned value of 50 to ind, TargetSites_Rat_Female: no positive results): active; bone

O=C1N(CCO)CCN1/N=C/c1ccc([N+](=O)[O-])o1
Potency [3]: 16.7 mg/kg/day

COc1cc(/C=C/C(=O)O[C@H]2CC[C@]34C[C@]35CC[C@]3(C)[C@@H]([C@H](C)CCC=C(C)C)CC[C@@]3(C)[C@@H]5CC[C@H]4C2(C)C)ccc1O
outcome [1]: inactive; no positive results

NNc1nc(-c2ccc(N)cc2)cs1
Potency (TargetSites_Rat_Female: hematopoietic system, mammary gland): 1.03 mg/kg/day

Cc1cc(Cc2ccc(N)c(C)c2)ccc1N
Potency [5]: 7.38 mg/kg/day

Cc1ccc(O)c(C(C)(C)C)c1
outcome [6]: inactive; no positive results

Cc1ncc([N+](=O)[O-])n1CCO
Potency (TD50_Rat_Note: TD50 is harmonic mean of more than one positive test, TargetSites_Rat_Female: liver, mammary gland): 542 mg/kg/day

Cc1ccc2ncccc2c1
outcome [1]: inactive; no positive results

Nc1ccccc1N
Potency: 248 mg/kg/day

CC(=O)Nc1ccc(OCC(O)CNC(C)C)cc1 (stereo not drawn)
outcome [1]: inactive; no positive results

O=P(=O)O
outcome [1]: inactive; no positive results

COc1cc2c(cc1N)oc1ccccc12
Potency (TD50_Rat_Note: TD50 is harmonic mean of more than one positive test, harmonic mean of TD50 includes a value for upper 99% confidence li, TargetSites_Rat_Female: ear Zymbals gland, mammary gland, urinary bladder): 29 mg/kg/day

CCCCCc1cc(O)c2c(c1)OC(C)(C)[C@@H]1CCC(C)=C[C@@H]21
outcome [1]: inactive; no positive results

C=Cc1ccccc1
Potency [3]: 23.3 mg/kg/day

Cc1cccc(C)c1
Potency (TD50_Rat_Note: TD50 is harmonic mean of more than one positive test, TargetSites_Rat_Female: oral cavity, Maltoni head cancers): 3110 mg/kg/day
outcome [1]: inactive; no positive results

OC(O)C(Cl)(Cl)Cl
outcome [6]: inactive; no positive results

NC(N)=S
Potency (TD50_Rat_Note: TD50 is harmonic mean of more than one positive test, TargetSites_Rat_Female: no positive results): 98.5 mg/kg/day

ClCC(Cl)CCl
Potency (TD50_Rat_Note: TD50 is harmonic mean of more than one positive test, TargetSites_Rat_Female: clitoral gland, ear Zymbals gland, mammary gland, oral cavity, stomach): 1.35 mg/kg/day

CC(C)(C)NCC(O)c1ccc(O)c(CO)c1 (stereo not drawn)
Potency (TD50_Rat_Note: TD50 is harmonic mean of more than one positive test, TargetSites_Rat_Female: mesovarium): 40 mg/kg/day

Nc1ccccc1
Potency (TD50_Rat_Note: TD50 is harmonic mean of more than one positive test, greater than ten-fold variation among TD50 values for positive res, TargetSites_Rat_Female: peritoneal cavity): 269 mg/kg/day
outcome [6]: inactive; no positive results

Nc1nc(N)nc(-c2ccccc2)n1
outcome [6]: inactive; no positive results

CCN(CC)CC#CC(C)(C)OC(=O)C(O)(c1ccccc1)C1CCCCC1 (stereo not drawn)
outcome [1]: inactive; no positive results

CCN(N=O)C(N)=O
Potency (TD50_Rat_Note: TD50 is harmonic mean of more than one positive test, TargetSites_Rat_Female: nervous system, small intestine): 0.948 mg/kg/day

OCCOCCOCCO
outcome [6]: inactive; no positive results

COP(=O)(OC)OC=C(Cl)Cl
Potency [2]: 4.16 mg/kg/day

O=C(Nc1ccc2c(c1)Cc1ccccc1-2)C(F)(F)F
Potency (TargetSites_Rat_Female: ear Zymbals gland, liver, mammary gland): 1.62 mg/kg/day

Cc1ccc(N=Nc2c(O)c(S(=O)(=O)O)cc3ccc(S(=O)(=O)O)cc23)c(C)c1
Potency (TD50_Rat_Note: TD50 value less than the reported upper confidence limit, TD50 is harmonic mean of more than one positive test, harmonic, TargetSites_Rat_Female: liver): 415 mg/kg/day

CC[C@H](OC(C)=O)C(C[C@H](C)N(C)C)(c1ccccc1)c1ccccc1
Potency [5]: 68 mg/kg/day

O=CNNc1nc(-c2ccc([N+](=O)[O-])o2)cs1
Potency (TD50_Rat_Note: TD50 is harmonic mean of more than one positive test, TargetSites_Rat_Female: ear Zymbals gland, hematopoietic system, kidney, large intestine, liver, mammary gland, small intestine): 5.06 mg/kg/day
